Measured values: US6776996B2, “Pesticidal matrices” (priority 1997, dated 2004)

Tested on: H. virescens
Test: Field evaluation against tobacco budworms on tobacco in North Carolina
Format: in vivo
Conditions: 0.75 lb of ai/acre
Procedure: A field evaluation is conducted on tobacco grown near Clayton, N.C. A wettable powder composition of this invention (composition 46) at 2×10^11, 5×10^11, and 8×10^11 bodies/acre, Bacillus thuringiensis (DIPEL® 2X, Abbott Laboratories) at 1.0 lb wettable powder (WP)/acre, and acephate (ORTHENE® 75SP, available from Valent USA, Walnut Creek, Calif.) at 0.75 lb active ingredient (ai)/acre are compared for efficacy against H. virescens. Biological materials are suspended in water containing an insect gustatory stimulant (PHEAST® available from […], Fresno, Calif.); aqueous dilutions of acephate contained no PHEAST®. Treatments and untreated check are replicated four times (small plots) in a randomized complete block design. By using fine-hair brushes, 1- to 2-day old laboratory-reared H. virescens are placed on the underside of leaves in each plot. Natural infestation of H. virescens also occurred at the test site. Treatments are applied to tobacco about 2 hours before each artificial larval infestation on days 1 and 8. Treatments are applied with a tractor-mounted, CO2-pressurized boom sprayer which is calibrated to deliver 25 gallons/acre through a single D2-33 nozzle centered over each tobacco row. Boom pressure during application is 60 lb/in^2.
At 2 and 5 days after first application and 5 and 9 days after second application, live H. virescens are counted on 20 plants in each plot. Additionally, visual estimate of leaf damage caused by larval feeding is made 14 days after the second application using the rating scale shown below.

For `COP(=O)(NC(C)=O)SC` (centres unmarked) [Acephate, acephate], the “Mean Number of Live Larvae per 20 Plants” value (Day of Test 3) was 6.0, the “Mean Number of Live Larvae per 20 Plants” value (Day of Test 8) was 5.8 and the “Mean Number of Live Larvae per 20 Plants” value (Day of Test 13) was 1.2. For the same compound, the “Mean Number of Live Larvae per 20 Plants” value (Day of Test 17) was 0.8 and the “Mean Plant Injury on Day 22 of Test” value (rating scale 0 (No Damage) to 4 (Severe Damage)) was 0.2.
